The source of these data is patent US12558354B2, “Tumor necrosis factor alpha (TNF-alpha) small molecule inhibitor” (AJOU UNIVERSITY INDUSTRY-ACADEMIC COOPERATION FOUNDATION, priority 2019, dated 2026).

Entries after “also recorded” stand apart in the source; their conditions may differ.

In series [1] the test system is human dermal fibroblasts (HDFs). The experiment in a line: Cell viability (MTT) assay in human dermal fibroblasts. As to conditions: HDFs, 24 hours. In kind it is cell-based. The procedure: FIG. 8A is a graph showing the effects of TIM1 and a solvent thereof, DMSO, on the viability of human dermal fibroblasts, in which cells (10^4/well) were treated with DMSO at 3 different concentrations (0.5, 1, and 2%) and TIM1 at 8 different concentrations (1, 3.125, 6.25, 12.5, 25, 50, 100, and 200 μM) for 24 hours, and the cell viability was monitored by an MTT assay. FIG. 8B is a graph showing the effect of TIM1 on the viability of a mouse fibrosarcoma cell line [L929 (1.5×10^4/well)] under the same conditions as in FIG. 8A. All experiments were independently performed 4 times, and mean±SEM of the independent experiments was calculated using a two-tailed paired Student's t-test (*P<0.05).
In order to measure cell viability, a colorimetric […] (MTT) assay (Sigma-Aldrich Co.) was performed. HDFs were seeded at a density of 10^4/well in 96-well plates (BD Biosciences, San Jose, CA, USA), grown overnight, and then treated with a test compound at various concentrations for 24 hours. The next day, the medium was replaced with a medium (100 μl/well) containing a 10% MTT solution, followed by incubated at 37° C. for 3 hours. This solution was replaced with DMSO (100 μl/well), and the plates were incubated at room temperature for 30 minutes. Thereafter, the plates were read at a wavelength of 540 nm using a microplate spectrophotometer system (Molecular Devices, Silicon Valley, California).

The target in series [2] is T1, recombinant human TNF-α (rhTNF-α) (Homo sapiens, UniProt P01375).
T1 construct: purchased Miltenyi Biotec
The experiment in a line: TNF-α-mediated hIL-8 secretion in HDFs (ELISA). Particulars: for inhibition of TNF-induced hIL-8, TIM1 derivatives compared with TIM1: HDFs, 1, 10 and 50 μM, rhTNF-α 1 ng/ml. The series is classed as cell-based. The procedure: (§1) HDFs were seeded at a density of 10^4/well in a 96-well plate (BD Biosciences) and grown overnight. The cells were treated for 24 hours with a 1-hour-pre-incubated mixture of rhTNF-α and test compounds. IL-8 secretion was assessed by a human IL-8 uncoated ELISA kit (eBioscience, Inc., San Diego, CA, USA), and IL-6 secretion level was assessed by a human IL-6 ELISA MAX™ Deluxe kit (BioLegend, San Diego, CA, USA). The microtiter plates were then analyzed at an appropriate wavelength using a microplate spectrophotometer system (Molecular Devices, Silicon Valley, California).

Series [3] deals with TNF-α/TNFR1 interface (Homo sapiens, UniProt P01375). Particulars: target TNF-α/TNFR1 interface, literature; cited from earlier work.
The subject of series [4] is collagen-induced polyarthritis (CIA). The series can be described thus: Mouse model of collagen-induced polyarthritis (CIA), oral TIM1c. The series is classed as in vivo. The source says:
FIG. 6B is a graph showing body weight, FIG. 6C is a graph showing a squeaking number (the value 0 indicating no sign of pain), FIG. 6D is a graph showing an increase in paw volume, FIG. 6E is a graph showing an arthritis index, that is, the severity of mouse limb arthritis. The number of arthritic limbs was quantified, and each limb was assigned a severity score of 0-4, the data representing the number of arthritic limbs per arthritic mouse and the mean severity score of arthritis in each limb, black arrows representing the start date of drug administration, NOR, n=4; CIA, n=4; TIM1c_2 mg/ml, n=4; TIM1c_20 mg/ml, n=5, values being represented as means±SEM. #p<0.05, ##p<0.01, ###p<0.001 vs. NOR group and p<0.05, **p<0.01, ***p<0.001 vs. CIA group (two-way ANOVA followed by Bonferroni correction).
Male DBA/1J mice (20-23 g) were purchased from Central Lab. Animal Inc. (Seoul, Korea). Animals were housed in a limited-access rodent facility with a maximum of 4 animals per polycarbonate cage, with free access to pelleted food and water. The temperature was maintained at 22-24° C. with a 12/12-hour light/dark cycle. Animals were acclimatized for at least 1 week prior to starting the experiment. The number of animals used per experiment or test and the potential suffering were minimized. All methods were approved by the Animal Care and Use Committee of Kyung-Hee University, Korea. All procedures were executed in accordance to the Guide for the Care and Use of Laboratory Animals by the Korea National Institute of Health.
Male DBA/1J mice (6-week-old) were subcutaneously injected with 50 μl of an emulsion containing 100 μg of chicken collagen type II (Sigma-Aldrich Co., St. Louis, MO, USA) dissolved in 25 μl of acetic acid and 25 μl of a complete Freund's adjuvant (Sigma-Aldrich Co.) at the base of the tail thereof, and the day of the first immunization was defined as day 0. On Day 14, the mice were injected with a booster of 50 μl of the emulsion having the same composition as the first immunization, except that an incomplete Freund's adjuvant was used. All mice were randomly divided into 4 experimental groups: non-treated normal group (NOR, n=4), collagen-injected and vehicle-treated arthritis control group (CIA, n=4), 2 mg/kg TIM1c-treated arthritis group (TIM1c 2 mg/ml, n=4), and 20 mg/kg TIM1c-treated arthritis group (TIM1c 20 mg/ml, n=5). The treatment groups were orally fed 2 or 20 mg/kg of TIM1c every 2 days from day 15 to day 60 after the first immunization.
In order to evaluate the progression of arthritis in CIA mice, four parameters (body weight, paw volume increase, squeaking score, and arthritis score) were measured after the first immunization with collagen and complete Freund's adjuvant. The body weights of the mice were measured using a digital balance (Mettler-Toledo Inc., Columbus, OH, USA). In order to assess nociception and hyperalgesia, ankle pain was evaluated on a scale measuring squeaking. Squeaking included any vocalization evoked by ankle flexion and extension. The flexion and extension procedures were repeated 10 times every 5 seconds, and the mouse was rated 0 (no vocalization) or 1 (vocalization) for each hindlimb thereof. The total number of vocalizations detected by the observer was counted as the number of squeaks. Paw swelling was measured by volume displacement of an electrolyte solution using a water-displacement plethysmometer (Ugo-Basil Biological Research Apparatus Co., Comerio-Varese, Italy), as previously described (Bang J. S. et al. (2009) Arthritis Res. Ther. 11(2):R49). The hindlimbs were immersed to the line of the hairy skin, and the volumes thereof were read on a digital display. The increase in paw volume was represented compared to day 0, which was defined as zero. […]

Series [5] addresses T2, recombinant mouse TNF-α (rmTNF-α) (Mus musculus, UniProt P06804).
T2 construct: purchased Miltenyi Biotec
T2 sequence (P06804 80-235 limits assumed): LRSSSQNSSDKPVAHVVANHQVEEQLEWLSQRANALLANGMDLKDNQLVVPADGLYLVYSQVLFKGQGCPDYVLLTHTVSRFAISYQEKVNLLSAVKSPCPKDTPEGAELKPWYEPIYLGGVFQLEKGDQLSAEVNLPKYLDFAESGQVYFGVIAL
The series can be described thus: Cell death attenuation assay, act-D-sensitized L929 cells with rmTNF-α. In kind it is cell-based. As to conditions: act-D-sensitized L929, rmTNF-α 1 ng/ml, 1-100 μM. The procedure:
HDFs (10^4/well) and L929 cell lines (1.5×10^4/well) were seeded in 96-well plates and grown overnight under appropriate conditions. The next day, HDFs and L929 cells were pretreated with 1 μg/ml act-D and 0.1 μg/ml act-D, respectively, followed by incubated for 30 minutes. Thereafter, a 1-hour-preincubated mixture of 10 ng/ml rhTNFα with test compounds or 1 ng/ml rmTNFα with test compounds, was applied to HDFs and L929 cells, respectively. The cells were incubated for 24 hours post-treatment, and survival was measured by the MTT assay. Cell viability was calculated with reference to the no-treatment control group. The obtained values were normalized with respect to the act-D treatment group and then used to calculate death attenuation (%) rate using the following equation: […]

Series [6] deals with T1, recombinant human TNF-α (rhTNF-α). The series can be described thus: TNF-α-mediated hIL-6 secretion in HDFs (ELISA). In kind it is cell-based. How it is done: as §1
In general terms: In an ELISA, binding on a coated surface is turned into a signal by an enzyme label.

[7] abbreviates: HDFs, 1, 10, 50 and 100 μM, 24 hours.

T1 sequence (P01375 77-233 limits assumed): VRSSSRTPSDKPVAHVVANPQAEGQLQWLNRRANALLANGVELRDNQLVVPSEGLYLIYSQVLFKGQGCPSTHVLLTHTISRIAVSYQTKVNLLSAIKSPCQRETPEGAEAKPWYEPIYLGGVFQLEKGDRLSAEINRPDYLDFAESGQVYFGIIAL
Sequence of TNF-α/TNFR1 interface (P01375 77-233 limits assumed, species assumed): as the sequence (P01375 77-233 limits assumed) above

Turning to `CCCn1c(C)cc(-c2csc(NC(=O)c3nn(CC)c(=O)c4ccccc34)n2)c1C` [TIM1-7, N-[4-(2,5-dimethyl-1-propylpyrrol-3-yl)-1,3-thiazol-2-yl]-3-ethyl-4-oxophthalazine-1-carboxamide], the “cytotoxicity (cell viability, MTT assay)” value in series [1] is recorded as “negligible cytotoxicity”. For the same molecule, the “inhibition of TNF-induced hIL-8, TIM1 derivatives compared with TIM1” value (“inhibition … compared with TIM1” below) in series [2] (24 hours) was “concentration-dependent inhibition of TNF-induced hIL-8 greater than that of TIM1”.

With `Cc1csc(N(C(=O)c2nn(C)c(=O)c3ccccc23)c2ccccc2)n1` [TIM1-10, 3-methyl-N-(4-methy1-1,3-thiazol-2-yl)-4-oxo-N-phenylphthalazine-1-carboxamide], the “cytotoxicity (cell viability, MTT assay)” value in series [1] is “negligible cytotoxicity”. Further, in series [2] (24 hours), the “inhibition … compared with TIM1” value is “concentration-dependent inhibition of TNF-induced hIL-8 greater than that of TIM1”.

In the case of `C=C1C(=O)O[C@@H]2C[C@@H](C)[C@]34C[C@]5(C(=O)O[C@H]6C[C@@]7(C)C(=C[C@H]65)[C@H](C)CC[C@@H]7O)[C@H](C(C)=C3C[C@@H]12)[C@@H]4OC(C)=O` [Japonicone A], the IC50 – broadly, the concentration that inhibits the measured activity by half – in series [3] was ~10 µM.

With `CCCNc1nc(-c2cc(C)n(NC(=O)c3nn(C)c(=O)c4ccccc34)c2C)cs1.Cl` [TIM1c, N-{2,5-dimethyl-3-[2-(propylamino)-1,3-thiazol-4-yl]pyrrol-l-yl}-3-methyl-4-oxophthalazine-1-carboxamide hydrochloride], the “disease severity at low dose” value in series [4] (2 mg/kg/2 days) is “slightly ameliorate disease severity”. The “induction of RA at high dose” value in series [4] (20 mg/kg/2 days) is on record as “significantly decreased to such an extent that the limbs of the animals were almost identical to those of the normal group”. In addition, in series [4] (2 or 20 mg/kg every 2 days), the body weight result is given as “weight gain” and the paw volume entry is recorded as “paw volume decrease”. In series [4] (2 or 20 mg/kg every 2 days, day 15 to day 60), the “RA symptoms versus CIA mice” value is recorded as “Dose-dependent amelioration”. The number of squeaks entry in series [4] (CIA mice) is on record as “inhibited”. The “arthritis index (clinical score)” value in series [4] (treatment group versus CIA) is recorded as “significantly decreased”. In series [1], the “cytotoxicity (cell viability, MTT assay)” value is “negligible cytotoxicity”. The “inhibition … compared with TIM1” value in series [2] (24 hours, hydrochloride) is “concentration-dependent inhibition of TNF-induced hIL-8 greater than that of TIM1; also recorded: maximally inhibited”.

Take Erythrosine B: the IC50 in series [3] is 5 µM.

Take `Cc1cc(-c2csc(N(C)C)n2)c(C)n1NC(=O)c1nn(C)c(=O)c2ccccc12` [TIM1d, N-{3-[2-(dimethylamino)-1,3-thiazol-4-yl]-2,5-dimethylpyrrol-1-yl}-3-methyl-4-oxophthalazine-1-carboxamide]: the “cytotoxicity (cell viability, MTT assay)” value in series [1] is “negligible cytotoxicity”. In series [2] (24 hours), the “inhibition … compared with TIM1” value is recorded as “concentration-dependent inhibition of TNF-induced hIL-8 greater than that of TIM1”.

As for `Cc1cc(-c2csc(NC(=O)c3nn(C)c(=O)c4ccccc34)n2)c(C)n1CCc1ccccc1` [TIM1-14, N-{4-[2,5-dimethyl-1-(2-phenylethyl)pyrrol-3-yl]-1,3-thiazol-2-yl}-3-methyl-4-oxophthalazine-1-carboxamide], in series [1], the “cytotoxicity (cell viability, MTT assay)” value is listed as “negligible cytotoxicity”. In addition, in series [2] (24 hours), the “inhibition … compared with TIM1” value is reported as “concentration-dependent inhibition of TNF-induced hIL-8 greater than that of TIM1”.

On to `CCCCCCn1nc(C(=O)Nc2nc3ccccc3s2)c2ccccc2c1=O` [TIM1-11, N-(1,3-benzothiazol-2-yl)-3-hexyl-4-oxophthalazine-1-carboxamide], for which, in series [1], the “cytotoxicity (cell viability, MTT assay)” value is on record as “negligible cytotoxicity”. The “inhibition … compared with TIM1” value in series [2] (24 hours) is listed as “concentration-dependent inhibition of TNF-induced hIL-8 greater than that of TIM1”.

On to `Cc1cc2occ(CN(C)CCN(C)Cc3cn(-c4cccc(C(F)(F)F)c4)c4ccccc34)c(=O)c2cc1C` [SPD304, reference compound], for which the “cytotoxicity (cell viability, MTT assay)” value in series [1] is on record as “showed cytotoxicity; also recorded: severe cytotoxicity at high concentrations; also recorded: strong cytotoxicity at concentrations exceeding 1 μM; also recorded: significant cytotoxic effects were exhibited at concentrations of 10, 50 or 100 μM”. Besides, the “inhibition of rmTNF-α-mediated proapoptotic pathway / cell death” value in series [5] was “did not reduce the death of these cells at concentrations other than 1 μM”. The “secretion of hIL-8 at 10 μM” value in series [2] (HDFs, 10 μM) was “increase the secretion of cytokines”. Moreover, the “secretion of hIL-8 at 50 μM” value in series [2] (HDFs, 50 μM) is “completely inhibits”. Moreover, in series [2] (setting [7]), the “inhibition of TNF-α-mediated hIL-8 secretion” value is reported as “weak at 10 μM but stronger at 1 μM”. In addition, in series [6] (HDFs, 10 μM), the “secretion of hIL-6 at 10 μM” value is reported as “increase the secretion of cytokines”. The “secretion of hIL-6 at 50 μM” value in series [6] (HDFs, 50 μM) is “completely inhibited”. For the same molecule, the “inhibition of TNF-α-mediated hIL-6 secretion” value in series [6] (setting [7]) was “weak at 10 μM but stronger at 1 μM”.
